# In ChEMBL document CHEMBL5252638, “Novel triphenylphosphonium amphiphilic conjugates of glycerolipid type: synthesis, cytotoxic and antibacterial activity, and targeted cancer cell delivery” (RSC Med Chem, 2023):
# Assays:
# A549 = assay: Cytotoxicity against human A549 cells assessed as number of viable cells measured after 48 hrs by MTT based colorimetric assay; format: functional, cell-based; settings: A549, 48 h
# DU-145 = assay: Cytotoxicity against human DU-145 cells assessed as number of viable cells measured after 48 hrs by MTT based colorimetric assay; format: functional, cell-based; settings: DU-145, 48 h
# HuTu80 [1] = assay: Induction of mitochondrial membrane potential loss in human HuTu80 cells assessed as J-monomer green fluorescence intensity at 10 uM incubated for 24 hrs by JC10 staining based flow cytometry method (reference value: 5.7%); format: functional
# HuTu80 [2] = assay: Induction of apoptosis in human HuTu80 cells assessed as early apoptotic cells at 1 uM incubated for 48 hrs by annexin V FITC/propidium iodide staining based flow cytometry analysis (reference value: 1.74%); format: functional
# [3] = Selectivity index, ratio of IC50 for human WI-38 cells to IC50 for human T98G cells; format: toxicity; settings: WI-38 cells and T98G cells, read-out: Ratio IC50
# Staphylococcus aureus [4] = assay: Bactericidal against Staphylococcus aureus ATCC 6538 P FDA 209P by serial microdilution method; format: functional
# Enterococcus faecalis [5] = assay: Antimicrobial activity against Enterococcus faecalis ATCC 29212 by serial microdilution method; format: functional
# HuTu80 [6] = assay: Induction of cell cycle arrest in human HuTu80 cells assessed as accumulation of cell at G2/M phase at 1 uM measured after 48 hrs by propidium iodide staining based analysis (reference value: 18.7%); format: functional
# PC-3 = assay: Cytotoxicity against human PC-3 cells assessed as number of viable cells measured after 48 hrs by MTT based colorimetric assay; format: functional, cell-based; settings: PC-3, 48 h
# Bacillus cereus [7] = assay: Bactericidal activity against Bacillus cereus ATCC 10702 NCTC 8035 by serial microdilution method; format: functional
# [8] = Cytotoxicity against human Chang liver cells assessed as number of viable cells measured after 48 hrs by MTT based colorimetric assay; format: toxicity, cell-based
# HuTu80 [9] = assay: Induction of apoptosis in human HuTu80 cells assessed as late apoptotic cells at 1 uM incubated for 48 hrs by annexin V FITC/propidium iodide staining based flow cytometry analysis (reference value: 0.00%); format: functional
# M-HeLa = assay: Cytotoxicity against human HelaM cells assessed as number of viable cells measured after 48 hrs by MTT based colorimetric assay; format: functional, cell-based
# HuTu80 [10] = assay: Induction of cell cycle arrest in human HuTu80 cells assessed as accumulation of cell at S phase at 2 uM measured after 48 hrs by propidium iodide staining based analysis (reference value: 8.1%); format: functional
# HuTu80 [11] = assay: Induction of apoptosis in human HuTu80 cells assessed as late apoptotic cells at 2 uM incubated for 48 hrs by annexin V FITC/propidium iodide staining based flow cytometry analysis (reference value: 0.00%); format: functional
# HuTu80 [12] = assay: Induction of cell cycle arrest in human HuTu80 cells assessed as accumulation of cell at G2/M phase at 2 uM measured after 48 hrs by propidium iodide staining based analysis (reference value: 18.7%); format: functional
# HuTu80 [13] = assay: Induction of apoptosis in human HuTu80 cells assessed as necrotic cells at 2 uM incubated for 48 hrs by annexin V FITC/propidium iodide staining based flow cytometry analysis (reference value: 4.56%); format: functional
# [14] = Selectivity index, ratio of IC50 for human WI-38 cells to IC50 for human MCF7 cells; format: toxicity; settings: WI-38 cells and MCF7 cells, read-out: Ratio IC50
# [15] = Selectivity index, ratio of IC50 for human WI-38 cells to IC50 for human PC-3 cells; format: toxicity; settings: WI-38 cells and PC-3 cells, read-out: Ratio IC50
# HuTu80 [16] = assay: Induction of cell cycle arrest in human HuTu80 cells assessed as accumulation of cell at S phase at 1 uM measured after 48 hrs by propidium iodide staining based analysis (reference value: 8.1%); format: functional
# HuTu80 [17] = assay: Induction of apoptosis in human HuTu80 cells assessed as viable cells at 1 uM incubated for 48 hrs by annexin V FITC/propidium iodide staining based flow cytometry analysis (reference value: 93.71%); format: functional; settings: read-out: Activity
# HuTu80 [18] = assay: Cytotoxicity against human HuTu80 cells assessed as number of viable cells measured after 48 hrs by MTT based colorimetric assay; format: functional, cell-based; settings: HuTu80, 48 h
# PANC-1 = assay: Cytotoxicity against human PANC-1 cells assessed as number of viable cells measured after 48 hrs by MTT based colorimetric assay; format: functional, cell-based; settings: PANC-1, 48 h
# Homo sapiens [19] = species: Homo sapiens; assay: Selectivity index, ratio of IC50 for human WI-38 cells to IC50 for human HuTu80 cells
# Homo sapiens [20] = species: Homo sapiens; assay: Selectivity index, ratio of IC50 for human WI-38 cells to IC50 for human DU-145 cells
# T98G = assay: Cytotoxicity against human T98G cells assessed as number of viable cells measured after 48 hrs by MTT based colorimetric assay; format: functional, cell-based
# HuTu80 [21] = assay: Induction of ROS production in human HuTu80 cells assessed as increase in fluorescence intensity at 5 uM measured after 48 hrs by flow cytometry based analysis (reference value: 380); format: functional
# Staphylococcus aureus [22] = assay: Antimicrobial activity against Staphylococcus aureus ATCC 6538 P FDA 209P by serial microdilution method; format: functional
# MCF7 = assay: Cytotoxicity against human MCF7 cells assessed as number of viable cells measured after 48 hrs by MTT based colorimetric assay; format: functional, cell-based; settings: MCF7, 48 h
# HuTu80 [23] = assay: Induction of mitochondrial membrane potential loss in human HuTu80 cells assessed as J-aggregates red fluorescence intensity at 5 uM incubated for 24 hrs by JC10 staining based flow cytometry method (reference value: 94.4%); format: functional
# HuTu80 [24] = assay: Induction of mitochondrial membrane potential loss in human HuTu80 cells assessed as J-aggregates red fluorescence intensity at 10 uM incubated for 24 hrs by JC10 staining based flow cytometry method (reference value: 94.4%); format: functional
# HuTu80 [25] = assay: Induction of mitochondrial membrane potential loss in human HuTu80 cells assessed as J-monomer green fluorescence intensity at 5 uM incubated for 24 hrs by JC10 staining based flow cytometry method (reference value: 5.7%); format: functional
# HepG2 = assay: Cytotoxicity against human HepG2 cells assessed as number of viable cells measured after 48 hrs by MTT based colorimetric assay; format: functional, cell-based; settings: HepG2, 48 h
# [26] = Cytotoxicity against human WI-38 cells assessed as number of viable cells measured after 48 hrs by MTT based colorimetric assay; format: toxicity, cell-based
# HuTu80 [27] = assay: Induction of cell cycle arrest in human HuTu80 cells assessed as accumulation of cell at G1/G0 phase at 2 uM measured after 48 hrs by propidium iodide staining based analysis (reference value: 72%); format: functional
# HuTu80 [28] = assay: Induction of apoptosis in human HuTu80 cells assessed as necrotic cells at 1 uM incubated for 48 hrs by annexin V FITC/propidium iodide staining based flow cytometry analysis (reference value: 4.56%); format: functional
# HuTu80 [29] = assay: Induction of cell cycle arrest in human HuTu80 cells assessed as accumulation of cell at G1/G0 phase at 1 uM measured after 48 hrs by propidium iodide staining based analysis (reference value: 72%); format: functional
# SK-OV-3 = assay: Cytotoxicity against human SK-OV-3 cells assessed as number of viable cells measured after 48 hrs by MTT based colorimetric assay; format: functional, cell-based; settings: SK-OV-3, 48 h
# HuTu80 [30] = assay: Induction of apoptosis in human HuTu80 cells assessed as viable cells at 2 uM incubated for 48 hrs by annexin V FITC/propidium iodide staining based flow cytometry analysis (reference value: 93.71%); format: functional; settings: read-out: Activity
# HuTu80 [31] = assay: Induction of ROS production in human HuTu80 cells assessed as increase in fluorescence intensity at 10 uM measured after 48 hrs by flow cytometry based analysis (reference value: 380); format: functional
# Bacillus cereus [32] = assay: Antimicrobial activity against Bacillus cereus ATCC 10702 NCTC 8035 by serial microdilution method; format: functional
# HuTu80 [33] = assay: Induction of apoptosis in human HuTu80 cells assessed as early apoptotic cells at 2 uM incubated for 48 hrs by annexin V FITC/propidium iodide staining based flow cytometry analysis (reference value: 1.74%); format: functional
# [34] = Selectivity index, ratio of IC50 for human WI-38 cells to IC50 for human A549 cells; format: toxicity; settings: WI-38 cells and A549 cells, read-out: Ratio IC50
# Escherichia coli [35] = assay: Antimicrobial activity against Escherichia coli ATCC 25922 by serial microdilution method; format: functional
# Pseudomonas aeruginosa [36] = assay: Antimicrobial activity against Pseudomonas aeruginosa ATCC 9027 by serial microdilution method; format: functional
# [37] = Selectivity index, ratio of IC50 for human WI-38 cells to IC50 for human HepG2 cells; format: toxicity; settings: WI-38 cells and HepG2 cells, read-out: Ratio IC50
# Enterococcus faecalis [38] = assay: Bactericidal activity against Enterococcus faecalis ATCC 29212 by serial microdilution method; format: functional
# Homo sapiens [39] = species: Homo sapiens; assay: Selectivity index, ratio of IC50 for human WI-38 cells to IC50 for human PANC-1 cells
# Homo sapiens [40] = species: Homo sapiens; assay: Selectivity index, ratio of IC50 for human WI-38 cells to IC50 for human SK-OV-3 cells
# Escherichia coli [41] = assay: Bactericidal activity against Escherichia coli ATCC 25922 by serial microdilution method; format: functional
# Pseudomonas aeruginosa [42] = assay: Bactericidal against Pseudomonas aeruginosa ATCC 9027 by serial microdilution method; format: functional
smiles,measurement,setting,value
C=C(C)[C@@H]1CC[C@]2(COC(=O)CCC(=O)OC(COC(=O)CCCCCCC/C=C\CCCCCCCC)COC(=O)CCCC[P+](c3ccccc3)(c3ccccc3)c3ccccc3)CC[C@]3(C)[C@H](CC[C@@H]4[C@@]5(C)CC[C@H](O)C(C)(C)[C@@H]5CC[C@]43C)[C@@H]12.[Br-] (stereo partly specified),IC50,A549,54.2 µM
same,IC50,DU-145,15.5 µM
same,Activity,HuTu80 [1],9.7%
same,Activity,HuTu80 [2],1.29%
same,selectivity ratio,[3],1.7
same,MBC,Staphylococcus aureus [4],125 µM
same,MIC,Enterococcus faecalis [5],125 µM
same,Activity,HuTu80 [6],2.8%
same,IC50,PC-3,32.3 µM
same,MBC,Bacillus cereus [7],125 µM
same,IC50 at 48 h,[8],11.2 µM
same,Activity,HuTu80 [9],4.58%
same,IC50,M-HeLa,51 µM
same,Activity,HuTu80 [10],1.9%
same,Activity,HuTu80 [11],12%
same,Activity,HuTu80 [12],1.8%
same,Activity,HuTu80 [13],34.5%
same,selectivity ratio,[14],2.2
same,selectivity ratio,[15],1.1
same,Activity,HuTu80 [16],2.8%
same,viability at 1 µM,HuTu80 [17],76.1%
same,IC50,HuTu80 [18],1.7 µM
same,IC50,PANC-1,35.7 µM
same,Ratio IC50,Homo sapiens [19],21.4
same,Ratio IC50,Homo sapiens [20],2.3
same,IC50,T98G,22 µM
same,Flu intensity,HuTu80 [21],500
same,MIC,Staphylococcus aureus [22],31.3 µM
same,IC50,MCF7,16.4 µM
same,Activity,HuTu80 [23],84.2%
same,Activity,HuTu80 [24],90.3%
same,Activity,HuTu80 [25],15.9%
same,IC50,HepG2,60 µM
same,IC50 at 48 h,[26],36.3 µM
same,Activity,HuTu80 [27],87%
same,Activity,HuTu80 [28],18.03%
same,Activity,HuTu80 [29],84%
same,IC50,SK-OV-3,57 µM
same,viability at 2 µM,HuTu80 [30],51%
same,Flu intensity,HuTu80 [31],840
same,MIC,Bacillus cereus [32],15.6 µM
same,Activity,HuTu80 [33],2.5%
C=C(C)[C@@H]1CC[C@]2(COCC(O)COC(=O)CCCC[P+](c3ccccc3)(c3ccccc3)c3ccccc3)CC[C@]3(C)[C@H](CC[C@@H]4[C@@]5(C)CC[C@H](O)C(C)(C)[C@@H]5CC[C@]43C)[C@@H]12 (stereo partly specified),IC50,A549,3.1 µM
same,selectivity ratio,[3],1.1
same,IC50,PC-3,7.9 µM
same,IC50,M-HeLa,11.5 µM
same,selectivity ratio,[14],3.1
same,IC50,HuTu80 [18],0.3 µM
same,Ratio IC50,Homo sapiens [19],15.7
same,IC50,T98G,4.1 µM
same,selectivity ratio,[34],1.5
same,IC50,MCF7,1.5 µM
same,IC50 at 48 h,[26],4.7 µM
CC(C)C1=CC2=CC[C@@H]3[C@](C)(CCC[C@@]3(C)C(=O)OCC(O)COC(=O)CCCC[P+](c3ccccc3)(c3ccccc3)c3ccccc3)[C@H]2CC1 (stereo partly specified),IC50,A549,26.2 µM
same,IC50,DU-145,2.8 µM
same,MBC,Staphylococcus aureus [4],250 µM
same,MIC,Enterococcus faecalis [5],7.8 µM
same,MIC,Escherichia coli [35],250 µM
same,MIC,Pseudomonas aeruginosa [36],250 µM
same,selectivity ratio,[37],1.1
same,IC50,PC-3,11 µM
same,IC50 at 48 h,[8],6 µM
same,IC50,M-HeLa,27.3 µM
same,MBC,Enterococcus faecalis [38],250 µM
same,selectivity ratio,[14],1.9
same,selectivity ratio,[15],2.2
same,IC50,HuTu80 [18],2.2 µM
same,Ratio IC50,Homo sapiens [39],1.8
same,Ratio IC50,Homo sapiens [40],1.7
same,IC50,PANC-1,13.1 µM
same,Ratio IC50,Homo sapiens [19],11
same,Ratio IC50,Homo sapiens [20],8.6
same,IC50,T98G,9.8 µM
same,MIC,Staphylococcus aureus [22],31.3 µM
same,IC50,MCF7,12.5 µM
same,MBC,Escherichia coli [41],500 µM
same,IC50,HepG2,21.6 µM
same,IC50 at 48 h,[26],24.2 µM
same,IC50,SK-OV-3,14.4 µM
same,MIC,Bacillus cereus [32],3.9 µM
same,MBC,Pseudomonas aeruginosa [42],500 µM
